Values of other authors, collected in patent US5639734A, “Disaccharide inflammation inhibitors and uses thereof” (priority 1994, dated 1997).

How the values were obtained:
[1] = tested on: sialyl Lewis X (sLe^x) ligands, HL-60 cells; conditions: background; cited from earlier work
[2] = tested on: O-linked glycoprotein synthesis; conditions: background; cited from earlier work

CC(=O)NC1C(OCc2ccccc2)OC(CO)C(O)C1O (centres unmarked) [GalNAcα-0-Bn, GalNAc-O-benzyl]
Expression of sLe^x ligands and adhesion to activated endothelial cells (in words) [1]: inhibits the expression of sialyl Lewis X (sLe^x) ligands and adhesion to activated endothelial cells
Effect on mucin oligosaccharide / O-linked glycoprotein synthesis (in words) [2]: stimulates mucin oligosaccharide synthesis and inhibits O-linked glycoprotein synthesis
